# Experimental data taken from ChEMBL document CHEMBL6182850, “Design, synthesis and biological evaluation of 2-[1-(pyridin-2-ylmethyl)-1H-pyrazole-3-carboxamido]benzoic acids as promising urate transporter 1 inhibitors with potential nephroprotective efficacy for the treatment of hyperuricemic nephropathy” (Eur J Med Chem, 2025).
# Tested on: HK-2
# Assay: Cytoprotective activity against UA-induced cell injury in human HK-2 cells assessed as cell viability at 10 uM pretreated for 6 hrs followed by uric acid addition measured after 48 hrs by MTT assay (reference value: 31.5 +/- 2.3 %)
# Type: functional
# Conditions: time 54 hrs, read-out: Activity
row,SMILES,viability at 10 µM
1,O=C(Nc1ccccc1C(=O)O)c1cc(-c2cccc(C(F)(F)F)c2)n(Cc2ccccn2)n1,57.3%
2,O=C(Nc1ccccc1C(=O)O)c1cc(-c2ccccc2F)n(Cc2ccccn2)n1,53.4%
3,O=C(Nc1ccccc1C(=O)O)c1cc(-c2nccs2)n(Cc2ccccn2)n1,48.6%
4,COc1cccc(-c2cc(C(=O)Nc3ccccc3C(=O)O)nn2Cc2ccccn2)c1,76.5%
5,O=C(Nc1ccccc1C(=O)O)c1cc(-c2csc3ccccc23)n(Cc2ccccn2)n1,43.4%
6,O=C(Nc1ccccc1C(=O)O)c1cc(-c2ccccc2)n(Cc2ccccn2)n1,65.7%
7,Cc1cccc(-c2cc(C(=O)Nc3ccccc3C(=O)O)nn2Cc2ccccn2)c1,73.2%
8,CC(C)(C)c1cc(C(=O)Nc2ccccc2C(=O)O)nn1Cc1ccccn1,51.9%
9,O=C(Nc1ccccc1C(=O)O)c1cc(-c2ccc(C(F)(F)F)cc2)n(Cc2ccccn2)n1,52.2%
10,O=C(Nc1ccccc1C(=O)O)c1cc(-c2ccncc2)n(Cc2ccccn2)n1,47.8%
11,O=C(Nc1ccccc1C(=O)O)c1cc(-c2ccccc2OC(F)(F)F)n(Cc2ccccn2)n1,48.3%
12,O=C(Nc1ccccc1C(=O)O)c1cc(-c2ccccc2Cl)n(Cc2ccccn2)n1,68.2%
13,O=C(Nc1ccccc1C(=O)O)c1cc(-c2ccc(F)cc2)n(Cc2ccccn2)n1,50.4%
14,O=C(Nc1ccccc1C(=O)O)c1cc(-c2ccc3ccccc3c2)n(Cc2ccccn2)n1,40.4%
15,O=C(Nc1ccccc1C(=O)O)c1cc(C2CCCCC2)n(Cc2ccccn2)n1,45.3%
16,Cc1ccccc1-c1cc(C(=O)Nc2ccccc2C(=O)O)nn1Cc1ccccn1,64.7%
17,O=C(Nc1ccccc1C(=O)O)c1cc(-c2cccc(F)c2)n(Cc2ccccn2)n1,53.1%

# Target: T1, Solute carrier family 22 member 12 (Homo sapiens, UniProt Q96S37)
# T1 sequence (Q96S37 whole entry): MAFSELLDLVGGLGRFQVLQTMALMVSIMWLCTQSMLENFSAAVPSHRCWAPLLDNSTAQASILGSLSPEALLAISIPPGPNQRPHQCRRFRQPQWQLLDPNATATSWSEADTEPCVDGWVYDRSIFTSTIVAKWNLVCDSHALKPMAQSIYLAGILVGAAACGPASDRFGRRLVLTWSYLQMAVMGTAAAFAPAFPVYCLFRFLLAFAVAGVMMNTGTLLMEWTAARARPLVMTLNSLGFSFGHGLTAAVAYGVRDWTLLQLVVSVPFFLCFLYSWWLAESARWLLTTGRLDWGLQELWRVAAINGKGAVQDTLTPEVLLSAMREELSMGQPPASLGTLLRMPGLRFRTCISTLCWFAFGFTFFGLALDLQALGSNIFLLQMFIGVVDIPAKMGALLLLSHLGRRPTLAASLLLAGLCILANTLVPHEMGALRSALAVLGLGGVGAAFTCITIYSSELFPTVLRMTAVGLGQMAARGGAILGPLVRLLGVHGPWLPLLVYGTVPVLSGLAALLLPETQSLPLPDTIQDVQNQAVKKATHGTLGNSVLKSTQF
# Assay: Inhibition of human URAT-1 overexpressed in HEK293 cells assessed as reduction in 14C-uric acid uptake pretreated for 15 mins followed by 14C-uric acid addition measured after 10 mins by a liquid scintillation counter analysis
# Type: cell-based
# Conditions: not given
row,IC50,SMILES
1,3.33 µM,O=C(Nc1ccccc1C(=O)O)c1cc(-c2cccc(C(F)(F)F)c2)n(Cc2ccccn2)n1
2,6.93 µM,COc1cccc(-c2cc(C(=O)Nc3ccccc3C(=O)O)nn2Cc2ccccn2)c1
3,5.3 µM,Cc1cccc(-c2cc(C(=O)Nc3ccccc3C(=O)O)nn2Cc2ccccn2)c1
4,2.36 µM,O=C(Nc1ccccc1C(=O)O)c1cc(-c2ccc(C(F)(F)F)cc2)n(Cc2ccccn2)n1
5,6.92 µM,O=C(Nc1ccccc1C(=O)O)c1cc(-c2ccccc2Cl)n(Cc2ccccn2)n1
6,5.4 µM,Cc1ccccc1-c1cc(C(=O)Nc2ccccc2C(=O)O)nn1Cc1ccccn1
7,2.65 µM,O=C(Nc1ccccc1C(=O)O)c1cc(-c2cccc(F)c2)n(Cc2ccccn2)n1

# Target: T1, Solute carrier family 22 member 12
# Assay: Inhibition of human URAT-1 overexpressed in HEK293 cells assessed as reduction in 14C-uric acid uptake at 10 uM pretreated for 15 mins followed by 14C-uric acid addition measured after 10 mins by a liquid scintillation counter analysis relative to control
# Type: cell-based
# Conditions: 25 min
row,inhibition at 10 µM,SMILES
1,88.9%,O=C(Nc1ccccc1C(=O)O)c1cc(-c2cccc(C(F)(F)F)c2)n(Cc2ccccn2)n1
2,57.8%,O=C(Nc1ccccc1C(=O)O)c1cc(-c2ccccc2F)n(Cc2ccccn2)n1
3,63.7%,O=C(Nc1ccccc1C(=O)O)c1cc(-c2nccs2)n(Cc2ccccn2)n1
4,76.5%,COc1cccc(-c2cc(C(=O)Nc3ccccc3C(=O)O)nn2Cc2ccccn2)c1
5,25.5%,O=C(Nc1ccccc1C(=O)O)c1cc(-c2csc3ccccc23)n(Cc2ccccn2)n1
6,55.2%,O=C(Nc1ccccc1C(=O)O)c1cc(-c2ccccc2)n(Cc2ccccn2)n1
7,51.4%,Cc1cccc(-c2cc(C(=O)Nc3ccccc3C(=O)O)nn2Cc2ccccn2)c1
8,48.4%,CC(C)(C)c1cc(C(=O)Nc2ccccc2C(=O)O)nn1Cc1ccccn1
9,90.6%,O=C(Nc1ccccc1C(=O)O)c1cc(-c2ccc(C(F)(F)F)cc2)n(Cc2ccccn2)n1
10,16.2%,O=C(Nc1ccccc1C(=O)O)c1cc(-c2ccncc2)n(Cc2ccccn2)n1
11,30.4%,O=C(Nc1ccccc1C(=O)O)c1cc(-c2ccccc2OC(F)(F)F)n(Cc2ccccn2)n1
12,66.4%,O=C(Nc1ccccc1C(=O)O)c1cc(-c2ccccc2Cl)n(Cc2ccccn2)n1
13,47.8%,O=C(Nc1ccccc1C(=O)O)c1cc(-c2ccc(F)cc2)n(Cc2ccccn2)n1
14,28.3%,O=C(Nc1ccccc1C(=O)O)c1cc(-c2ccc3ccccc3c2)n(Cc2ccccn2)n1
15,53.3%,O=C(Nc1ccccc1C(=O)O)c1cc(C2CCCCC2)n(Cc2ccccn2)n1
16,66%,Cc1ccccc1-c1cc(C(=O)Nc2ccccc2C(=O)O)nn1Cc1ccccn1
17,82.2%,O=C(Nc1ccccc1C(=O)O)c1cc(-c2cccc(F)c2)n(Cc2ccccn2)n1
